Assay results from patent US12528816B2, “Substituted imidazo [1,2-b] pyridazines and [1, 2, 4] triazolo [ 4,3-b] pyridazines as camkii inhibitors” (Cardurion Pharmaceuticals, INC., priority 2020, dated 2026).

molecular target: T1, human CaMKIIδ (Homo sapiens, UniProt Q13557); assay: Evaluation of in vitro CaMKII inhibitory activity (binding assay, TR-FRET); conditions: human CaMKIIδ, TR-FRET binding assay; class symbols A/B/C; read-out: Act (CaMKII inhibitory activity, binding assay)
T1 construct: Full-length, glutathione-S-transferase(GST)-tagged, human CaMKIIδ was purchased from Carna Biosciences; purchased Carna Biosciences (CaMKIIδ); Wako Pure Chemical Industries (calmodulin) 02-111
Summary of the method: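 Inhibitors, in eight concentrations of 4-fold dilution, were incubated 1 h at room temperature with a protein–fluorescent probe premix preformed 30 min on ice, containing calmodulin and terbium anti-GST antibody. Displacement read by TR-FRET in duplicate; IC50 by logistic fitting.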

SMILES	IC50
CCN(CC)CCNC(=O)c1cccc(-c2cnn3ccc(-c4cccc(O[C@@H](C)Cn5cnnn5)c4)nc23)c1 [compound 103]	< 0.01 µM
C[C@@H](Cn1cnnn1)Oc1cc(-c2ccc3ncc(-c4cccc(OCCN5CCC5)c4C#N)n3n2)ccc1F [compound 215]	< 0.01 µM
C[C@@H](Cn1cnnn1)Oc1cc(-c2ccc3ncn(-c4cccn(C)c4=O)c3n2)ccc1F [compound 176]	0.01 to 0.1 µM
C[C@@H](Cn1cnnn1)Oc1cc(-c2ccc3ncc(-c4cccc(OCC5CCN(C)C5)c4C#N)n3n2)ccc1F (stereo partly drawn) [compound 201]	< 0.01 µM
C[C@@H](Cn1cnnn1)Oc1cc(-c2ccn3ncc(-c4cccnc4)c3n2)ccc1F [compound 20]	< 0.01 µM
C[C@@H](Cn1cnnn1)Oc1cc(-c2ccc3ncc(-c4cccc(OCCN5C(=O)CCC5=O)c4C#N)n3n2)ccc1F [compound 211]	< 0.01 µM
C[C@@H](Cn1cnnn1)Oc1cccc(-c2ccn3ncc(-c4cccc(C(=O)O)c4)c3n2)c1 [compound 16]	< 0.01 µM
C[C@@H](Cn1cnnn1)Oc1cccc(-c2ccn3ncc(-c4cccc(C(=O)N5CCOCC5)c4)c3n2)c1 [compound 71]	0.01 to 0.1 µM
C#Cc1ccccc1-c1cnc2ccc(-c3ccc(F)c(O[C@@H](C)Cn4cnnn4)c3)nn12 [compound 183]	< 0.01 µM
C[C@@H](Cn1cnnn1)Oc1cc(-c2ccc3ncc(-c4cccc(OCC5CCNC5=O)c4C#N)n3n2)ccc1F (stereo partly drawn) [compound 198]	< 0.01 µM
C[C@@H](Cn1cnnn1)Oc1cc(-c2ccc3ncc(-c4cccc(OCC(F)(F)F)c4C#N)n3n2)ccc1F [compound 214]	< 0.01 µM
C[C@@H](Cn1cnnn1)Oc1cc(-c2ccc3ncc(-c4cccc(OCC(=O)O)c4C#N)n3n2)ccc1F [compound 216]	< 0.01 µM
CC(Cn1cnnn1)Oc1cc(-c2ccc3ncc(-c4cccc(OC5CCC(N6CC(C)OC(C)C6)CC5)c4C#N)n3n2)ccc1F [compound 195, 2-[6-(4-fluoro-3-{[(2S)-1-(1H-tetrazol-1-yl)propan-2-yl]oxy}phenyl)imidazo[1,2-b]pyridazin-3-yl]-6-{[(1r,4r)-4-[(2R,6S)-2,6-dimethylmorpholin-4-yl]cyclohexyl]oxy}benzonitrile]	< 0.01 µM
C[C@@H](Cn1cnnn1)Oc1cccc(-c2ccn3ncc(-c4cccc(C(=O)NCCCN5CCOCC5)c4)c3n2)c1 [compound 78]	< 0.01 µM
C[C@@H](Cn1cnnn1)Oc1cc(-c2ccn3ncc(-c4cccc(F)c4C(N)=O)c3n2)ccc1F [compound 155]	0.01 to 0.1 µM
CC(=O)N1CCC(NC(=O)c2cccc(-c3cnn4ccc(-c5cccc(O[C@@H](C)Cn6cnnn6)c5)nc34)c2)CC1 [compound 75]	< 0.01 µM
C[C@@H](Cn1cnnn1)Oc1cc(-c2ccn3ncc(-c4cccc(C(F)(F)F)c4)c3n2)ccc1F [compound 130]	0.01 to 0.1 µM
C[C@@H](Cn1cnnn1)Oc1cc(-c2ccn3ncc(-c4ccccc4N4CCOCC4)c3n2)ccc1F [compound 48]	0.01 to 0.1 µM
CC[C@@H](Cn1cnnn1)Oc1cc(-c2ccc3ncc(-c4nccc(OC)c4C#N)n3n2)ccc1F [compound 476]	< 0.01 µM
C[C@@H](Cn1cnnn1)Oc1cc(-c2ccn3ncc(-c4ccccc4C#N)c3n2)ccc1F [compound 28]	< 0.01 µM
C[C@@H](Cn1cnnn1)Oc1cc(-c2ccc3ncc(-c4cc(C(N)=O)ccc4C(N)=O)n3n2)ccc1F [compound 184]	> 0.1 µM
C[C@@H](Cn1cnnn1)Oc1cccc(-c2ccn3ncc(-c4cccc(C(=O)Nc5cnn(C)c5)c4)c3n2)c1 [compound 85]	< 0.01 µM
C[C@@H](Cn1cnnn1)Oc1cc(-c2ccc3ncc(-c4cccc(OCC(F)F)c4C#N)n3n2)ccc1F [compound 206]	< 0.01 µM
C[C@@H](Cn1cnnn1)Oc1cc(-c2ccc3ncc(-c4cccc(N=S(C)(C)=O)c4C#N)n3n2)ccc1F [compound 191]	< 0.01 µM
C[C@@H](Cn1cnnn1)Oc1cc(-c2ccn3ncc(-c4cnn(C)c4)c3n2)ccc1F [compound 23]	< 0.01 µM
C[C@@H](Cn1cnnn1)Oc1cccc(-c2ccn3ncc(-c4cccc(C(=O)NCc5cccnc5)c4)c3n2)c1 [compound 94]	< 0.01 µM
CNC(=O)c1ccc(C#N)c(-c2cnc3ccc(-c4ccc(F)c(O[C@@H](C)Cn5cnnn5)c4)nn23)c1 [compound 168]	< 0.01 µM
C[C@@H](Cn1cnnn1)Oc1cccc(-c2ccn3ncc(-c4cccc(C(=O)NCCCCO)c4)c3n2)c1 [compound 79]	< 0.01 µM
COc1ncccc1-c1cnn2ccc(-c3ccc(F)c(O[C@@H](C)Cn4cnnn4)c3)nc12 [compound 166]	< 0.01 µM

same assay, conditions: in vitro CaMKII inhibitory activity (binding assay), human CaMKIIδ; read-out: Act

SMILES	IC50
C[C@@H](Cn1cnnn1)Oc1cc(-c2ccc3ncc(-c4nccc(NC(=O)OC(C)(C)C)c4C#N)n3n2)ccc1F [compound 231]	< 0.01 µM
COc1nccnc1-c1cnc2ccc(-c3ccc(F)c(O[C@@H](C)Cn4cnnn4)c3)nn12 [compound 268]	0.01 to 0.1 µM
C[C@@H](Cn1cnnn1)Oc1cccc(-c2ccc3ncc(-c4ccncc4C#N)n3n2)c1 [compound 279, 4-[6-(3-{[(2S)-1-(1H-tetrazol-1-yl)propan-2-yl]oxy}phenyl)imidazo[1,2-b]pyridazin-3-yl]pyridine-3-carbonitrile]	< 0.01 µM
COc1nc(-c2cnc3ccc(-c4cccc(O[C@@H](C)Cn5cnnn5)c4)nn23)ccc1C#N [compound 312]	< 0.01 µM
COc1ncnc(-c2cnc3ccc(-c4cccc(O[C@@H](C)Cn5cnnn5)n4)nn23)c1C#N [compound 459]	> 0.1 µM
C[C@@H](Cn1cnnn1)Oc1cc(-c2ccn3ncc(-c4ncccc4C#N)c3n2)ccc1F [compound 295]	< 0.01 µM
C[C@@H](Cn1cnnn1)Oc1cccc(-c2ccc3ncc(-c4c[n+]([O-])ccc4C#N)n3n2)c1 [compound 276]	< 0.01 µM
C[C@@H](Cn1cnnn1)Oc1cc(-c2ccc3ncc(-c4cnccc4C#N)n3n2)ccc1F [Example 275, 3-[6-(4-fluoro-3-{[(2S)-1-(1H-tetrazol-1-yl)propan-2-yl]oxy}phenyl)imidazo[1,2-b]pyridazin-3-yl]pyridine-4-carbonitrile]	< 0.01 µM
C[C@@H](Cn1cnnn1)Oc1cccc(-c2ccc3ncc(-c4nc(C(F)(F)F)ccc4C#N)n3n2)c1 [compound 349]	0.01 to 0.1 µM
C[C@@H](Cn1cnnn1)Oc1cccc(-c2ccc3ncc(-c4nccc(C5CC5)c4C#N)n3n2)c1 [compound 274]	< 0.01 µM
C[C@@H](Cn1cnnn1)Oc1cccc(-c2ccc3ncc(-c4ccnc(Cl)c4C#N)n3n2)c1 [compound 260]	< 0.01 µM
C[C@@H](Cn1cnnn1)Oc1ccc(F)c(-c2ccc3ncc(-c4ncccc4C#N)n3n2)c1 [compound 293]	0.01 to 0.1 µM
C[C@@H](Cn1cnnn1)Oc1cc(-c2ccc3ncc(-c4cc(F)ccc4C#N)n3n2)ncn1 [compound 299]	0.01 to 0.1 µM
COc1cc(Cl)cc(-n2cnc3ccc(-c4cncc(O[C@@H](C)Cn5cnnn5)n4)nc32)c1C#N [Example 448, 4-chloro-2-methoxy-6-[5-(6-{[(2S)-1-(1H-tetrazol-1-yl)propan-2-yl]oxy}pyrazin-2-yl)-3H-imidazo[4,5-b]pyridin-3-yl]benzonitrile]	< 0.01 µM
C[C@@H](Cn1cnnn1)Oc1cccc(-c2ccn3ncc(-c4cc(F)ccc4C#N)c3n2)n1 [Example 416, 4-fluoro-2-[5-(6-{[(2S)-1-(1H-tetrazol-1-yl)propan-2-yl]oxy}pyridin-2-yl)pyrazolo[1,5-a]pyrimidin-3-yl]benzonitrile]	< 0.01 µM
COCc1cc(F)cc(-c2cnc3ccc(-c4cccc(O[C@@H](C)Cn5cnnn5)n4)nn23)c1C#N [compound 462]	< 0.01 µM
COc1ccnc(-n2cnc3ccc(-c4cccc(O[C@@H](C)Cn5cnnn5)c4)nc32)c1C#N [compound 353]	< 0.01 µM
COc1cnc(C#N)c(-c2cnc3ccc(-c4cccc(O[C@@H](C)Cn5cnnn5)c4)nn23)n1 [compound 285]	< 0.01 µM
C[C@@H](Cn1cnnn1)Oc1cccc(-c2ccc3ncc(-c4nccc(OCF)c4C#N)n3n2)c1 [Example 466, 4-(fluoromethoxy)-2-[6-(3-{[(2S)-1-(1H-tetrazol-1-yl)propan-2-yl]oxy}phenyl)imidazo[1,2-b]pyridazin-3-yl]pyridine-3-carbonitrile]	< 0.01 µM
C[C@@H](Cn1cnnn1)Oc1cccc(-c2ccc3ncn(-c4cc(F)ccc4C#N)c3n2)c1 [Example 291, 4-fluoro-2-[5-(3-{[(2S)-1-(1H-tetrazol-1-yl)propan-2-yl]oxy}phenyl)-3H-imidazo[4,5-b]pyridin-3-yl]benzonitrile]	< 0.01 µM
C[C@@H](Cn1cnnn1)Oc1cccc(-c2ccc3ncc(-c4nc(F)ccc4C#N)n3n2)c1 [Example 467, 6-fluoro-2-[6-(3-{[(2S)-1-(1H-tetrazol-1-yl)propan-2-yl]oxy}phenyl)imidazo[1,2-b]pyridazin-3-yl]pyridine-3-carbonitrile]	< 0.01 µM
COc1ccc(C#N)c(-c2cnc3ccc(-c4cccc(O[C@@H](C)Cn5cnnn5)n4)nn23)c1 [compound 420]	< 0.01 µM
COc1cnc(-c2cnc3ccc(-c4cccc(O[C@@H](C)Cn5cnnn5)c4)nn23)c(C#N)c1 [compound 281]	< 0.01 µM
C[C@@H](Cn1cnnn1)Oc1cccc(-c2ccc3ncc(-c4cccc(C(C)(F)F)c4C#N)n3n2)c1 [Example 427, 2-(1,1-difluoroethyl)-6-[6-(3-{[(2S)-1-(1H-tetrazol-1-yl)propan-2-yl]oxy}phenyl)imidazo[1,2-b]pyridazin-3-yl]benzonitrile]	< 0.01 µM
C[C@@H](Cn1cnnn1)Oc1cccc(-c2ccc3ncc(-c4cnccn4)n3n2)c1 [compound 283]	< 0.01 µM
C[C@@H](Cn1cnnn1)Oc1cccc(-c2ccc3ncn(-c4cc(OC(F)F)ccc4C#N)c3n2)n1 [compound 385]	> 0.1 µM
C[C@@H](Cn1cnnn1)Oc1cccc(-c2ccc3ncc(-c4cc(F)c(F)cc4C#N)n3n2)n1 [compound 433]	< 0.01 µM
C[C@@H](Cn1cnnn1)Oc1cccc(-c2ccc3ncn(-c4cccc(C(F)F)c4C#N)c3n2)n1 [compound 397]	> 0.1 µM
